Reference: patent US8575135B2 (Gilead Sciences, Inc., priority 2011, dated 2013)
pEC50: −log10 of the molar value. Read-outs that look alike come from different tables or passages of the source.

How the values were obtained:
Assay in all cases: microbe, parasite or virus in culture
[1] = test system: 1a Pi-Rluc replicon with Q30R in genotype 1a NS5A; format: cell-based, HCV; details: Hepatitis C virus; for pEC50: read-out: 1a Q30R; for EC50: read-out: 1a Q30R (nM)
Description: (§1) Antiviral potency (EC50) was determined using a Renilla luciferase (RLuc)-based HCV replicon reporter assay. […] To perform the assay for genotype 2a (with M31 present in NS5A) or 2b, NS5A chimeric genotype 2a JFH-1 replicons that encodes a RLuc-Neo reporter and either genotype 2a J6 strain NS5A gene or genotype 2b MD2b-1 strain NS5A gene (both with M31 present) respectively, were either transiently transfected (t) into Huh-Lunet cells or were established as stably replicating replicon cells (s) is provided. Either cells were dispensed into 384-well plates for EC50 assays. To perform the assay for genotype 3 and 4, NS5A chimeric genotype 1b Con1 replicons that encodes a Pi-RLuc reporter and either genotype 3a S52 strain NS5A gene or genotype 4a ED43 strain NS5A gene respectively, were transiently transfected (t) into Huh-Lunet cells, which were subsequently dispensed into 384-well plates. Compounds were dissolved in DMSO at a concentration of 10 mM and diluted in DMSO either manually or using an automated pipeting instrument. Serially 3-fold diluted compounds were either manually mixed with cell culture media and added to the seeded cells or directly added to the cells using an automated instrument. […] 72 hours later, cells were lysed and Renilla luciferase activity quantified as recommended by the manufacturer (Promega-Madison, Wis.). Non-linear regression was performed to calculate EC50 values.
To determine the antiviral potency (EC50) against resistance mutants, resistance mutations, including M28T, Q30R, Q30H, L31M, and Y93C in genotype 1a NS5A and Y93H in genotype 1b NS5A, were introduced individually into either 1a Pi-Rluc or 1b Pi-Rluc replicons by site directed mutagenesis. Replicon RNA of each resistant mutant was transiently transfected into Huh-7-derived cured-51 cells and antiviral potency was determined on these transfected cells as described above.

[2] = test system: NS5A chimeric genotype 1b Con1 replicon with genotype 4a ED43 strain NS5A gene; format: cell-based, HCV; details: Hepatitis C virus; for pEC50: read-out: 4a
[3] = test system: stable HCV 2a JFH-1 Rluc replicon cells (L31 present in NS5A); format: cell-based; details: Hepatitis C virus; for pEC50: read-out: 2a JFH; for EC50: read-out: 2a JFH (nM)
[4] = test system: stable HCV 1a RLuc replicon cells (genotype 1a H77 replicon); format: cell-based; details: Hepatitis C virus; for pEC50: read-out: 1a; for EC50: read-out: 1a (nM)
Description: (§2) Evaluation of Cell-Based Anti-HCV Activity:
as §1

[5] = test system: NS5A chimeric genotype 1b Con1 replicon with genotype 3a S52 strain NS5A gene; format: cell-based, HCV; details: Hepatitis C virus; for pEC50: read-out: 3a; for EC50: read-out: 3a (nM)
Description: as §2, §1

[6] = test system: NS5A chimeric genotype 2a JFH-1 replicon with genotype 2b MD2b-1 strain NS5A gene (M31 present); format: cell-based, HCV; details: Hepatitis C virus; for pEC50: read-out: 2b
Description: as §2, §1

[7] = test system: NS5A chimeric genotype 2a JFH-1 replicon with genotype 2a J6 strain NS5A gene (M31 present); format: cell-based, HCV; details: Hepatitis C virus; for pEC50: read-out: 2a J6
Description: as §2, §1

Compound | pEC50 [1] | EC50 [1] [nM] | pEC50 [2] | EC50 ([2]; read-out: 4a (s) (nM)) [nM] | EC50 ([2]; read-out: 4a (t) (nM)) [nM] | pEC50 [3] | EC50 [3] [nM] | pEC50 [4] | EC50 [4] [nM] | pEC50 [5] | EC50 [5] [nM] | pEC50 [6] | EC50 ([6]; read-out: 2b (s) (nM)) [nM] | pEC50 [7] | EC50 ([7]; read-out: 2a J6 (s) (nM)) [nM] | EC50 ([6]; read-out: 2b (t) (nM)) [nM] | EC50 ([7]; read-out: 2a Jb (t) (nM)) [nM]
COC(=O)N[C@H](C(=O)N1CCC[C@H]1c1nc2c([nH]1)-c1cc3c(cc1CC2)-c1ccc(-c2cnc([C@@H]4CCCN4C(=O)[C@H](NC(=O)C4CC4)c4ccccc4)[nH]2)cc1CO3)C(C)C [Compound 494] | > 9.00 | 0.118 | > 9.00 | 0.031 | 0.017 | > 9.00 | 0.005 | > 9.00 | 0.037 | > 9.00 | 0.005 | > 9.00 | 0.017 | > 9.00 | 0.098 | – | –
COC[C@H]1C[C@@H](c2nc3ccc4cc5c(cc4c3[nH]2)OCc2cc(-c3cnc([C@@H]4CCCN4C(=O)[C@@H](NC(=O)OC)C(C)C)[nH]3)ccc2-5)N(C(=O)[C@@H](NC(=O)OC)C(C)C)C1 [Compound 495] | > 9.00 | 0.201 | > 9.00 | 0.014 | 0.014 | > 9.00 | 0.008 | > 9.00 | 0.021 | > 9.00 | 0.024 | > 9.00 | 0.541 | > 9.00 | 1.02 | 0.135 | 0.28
COC(=O)N[C@H](C(=O)N1CCC[C@H]1c1nc2ccc3cc4c(cc3c2[nH]1)OCc1cc(-c2cnc([C@@H]3CCCN3C(=O)[C@H](NC(=O)C3CC3)c3ccccc3)[nH]2)ccc1-4)C(C)C [Compound 498] | > 9.00 | 0.04 | > 9.00 | 0.004 | 0.011 | > 9.00 | 0.004 | > 9.00 | 0.03 | > 9.00 | 0.005 | > 9.00 | 0.013 | > 9.00 | 0.039 | 0.01 | 0.012
COC[C@H]1C[C@@H](c2ncc(-c3ccc4c(c3)COc3cc5c(cc3-4)CCc3nc([C@@H]4CCCN4C(=O)[C@@H](NC(=O)OC)C(C)C)[nH]c3-5)[nH]2)N(C(=O)[C@H](NC(=O)OC)c2ccccc2)C1 [Example OK, Methyl {(1R)-2-[(2S,4S)-2-(5-{2-[(2S)-1-{(2S)-2-[(methoxycarbonyl)amino]-3-methylbutanoyl}pyrrolidin-2-yl]-1,4,5,11-tetrahydroisochromeno[4′,3′:6,7]naphtho[1,2-d]imidazol-9-yl}-1H-imidazol-2-yl)-4-(methoxymethyl)pyrrolidin-1-yl]-2-oxo-1-phenylethyl}carbamate] | > 9.00 | 0.039 | – | – | – | > 9.00 | 0.011 | > 9.00 | 0.026 | > 9.00 | 0.028 | > 9.00 | 0.045 | > 9.00 | – | 0.036 | 0.076
COC[C@H]1C[C@@H](c2ncc(-c3ccc4c(c3)COc3cc5c(ccc6nc([C@@H]7C[C@@H]8C[C@@H]8N7C(=O)[C@@H](NC(=O)OC)C(C)C)[nH]c65)cc3-4)[nH]2)N(C(=O)[C@H](NC(=O)OC)c2ccccc2)C1 [Example OV, Methyl {(1R)-2-[(2S,4S)-2-(5-{2-[(1S,3S,5S)-2-{(2S)-2-[(methoxycarbonyl)amino]-3-methylbutanoyl}-2-azabicyclo[3.1.0]hex-3-yl]-1,11-dihydroisochromeno[4′,3′:6,7]naphtho[1,2-d]imidazol-9-yl}-1H-imidazol-2-yl)-4-(methoxymethyl)pyrrolidin-1-yl]-2-oxo-1-phenylethyl}carbamate] | > 9.00 | 0.031 | – | – | – | > 9.00 | 0.007 | > 9.00 | 0.01 | > 9.00 | 0.013 | > 9.00 | – | > 9.00 | – | 0.046 | 0.113
COC[C@H]1C[C@@H](c2ncc(-c3ccc4c(c3)COc3cc5c(ccc6nc([C@@H]7C[C@H]8C[C@H]8N7C(=O)[C@@H](NC(=O)OC)C(C)C)[nH]c65)cc3-4)[nH]2)N(C(=O)[C@H](NC(=O)OC)c2ccccc2)C1 [Example PR, methyl {(1R)-2-[(2S,4S)-2-(5-{2-[(1R,3S,5R)-2-{(2S)-2-[(methoxycarbonyl)amino]-3-methylbutanoyl}-2-azabicyclo[3.1.0]hex-3-yl]-1,11-dihydroisochromeno[4′,3′:6,7]naphtho[1,2-d]imidazol-9-yl}-1H-imidazol-2-yl)-4-(methoxymethyl)pyrrolidin-1-yl]-2-oxo-1-phenylethyl}carbamate] | > 9.00 | 0.045 | – | – | – | > 9.00 | 0.007 | > 9.00 | 0.013 | > 9.00 | 0.018 | > 9.00 | – | > 9.00 | – | 0.028 | 0.022
COC(=O)N[C@H](C(=O)N1[C@@H](C)CC[C@H]1c1nc2ccc3cc4c(cc3c2[nH]1)OCc1cc(-c2cnc([C@@H]3C[C@H](C)CN3C(=O)[C@H](NC(=O)OC)c3ccccc3)[nH]2)ccc1-4)C(C)C [Example QF, Methyl {(2S)-1-[(2S,5S)-2-(9-{2-[(2S,4S)-1-{(2R)-2-[(methoxycarbonyl)amino]-2-phenylacetyl}-4-methylpyrrolidin-2-yl]-1H-imidazol-5-yl}-1,11-dihydroisochromeno[4′,3′:6,7]naphtho[1,2-d]imidazol-2-yl)-5-methylpyrrolidin-1-yl]-3-methyl-1-oxobutan-2-yl}carbamate] | > 9.00 | 0.032 | – | – | – | > 9.00 | 0.004 | > 9.00 | 0.008 | > 9.00 | 0.02 | > 9.00 | 0.011 | > 9.00 | – | 0.015 | 0.053
COC(=O)N[C@H](C(=O)N1C[C@@H](C)C[C@H]1c1ncc(-c2ccc3c(c2)COc2cc4c(ccc5nc([C@@H]6CC[C@H](C)N6C(=O)[C@@H](NC(=O)OC)C(C)C)[nH]c54)cc2-3)[nH]1)C(C)C [Example QG, Methyl {(2S)-1-[(2S,5S)-2-(9-{2-[(2S,4S)-1-{(2S)-2-[(methoxycarbonyl)amino]-3-methylbutanoyl}-4-methylpyrrolidin-2-yl]-1H-imidazol-5-yl}-1,11-dihydroisochromeno[4′,3′:6,7]naphtho[1,2-d]imidazol-2-yl)-5-methylpyrrolidin-1-yl]-3-methyl-1-oxobutan-2-yl}carbamate] | > 9.00 | 0.071 | – | – | – | > 9.00 | 0.004 | > 9.00 | 0.005 | > 9.00 | 0.016 | > 9.00 | 0.043 | > 9.00 | – | 0.065 | 0.551
COC(=O)N[C@H](C(=O)N1[C@@H](C)CC[C@H]1c1nc2ccc3cc4c(cc3c2[nH]1)OCc1cc(-c2cnc([C@@H]3C[C@H](C)CN3C(=O)[C@@H](NC(=O)OC)[C@@H](C)OC)[nH]2)ccc1-4)C(C)C [Example QH, Methyl {(2S)-1-[(2S,5S)-2-(9-{2-[(2S,4S)-1-{(2S,3R)-3-methoxy-2-[(methoxycarbonyl)amino]butanoyl}-4-methylpyrrolidin-2-yl]-1H-imidazol-5-yl}-1,11-dihydroisochromeno[4′,3′:6,7]naphtho[1,2-d]imidazol-2-yl)-5-methylpyrrolidin-1-yl]-3-methyl-1-oxobutan-2-yl}carbamate] | > 9.00 | 0.051 | – | – | – | > 9.00 | 0.005 | > 9.00 | 0.007 | > 9.00 | 0.02 | > 9.00 | 0.049 | > 9.00 | – | 0.051 | 0.182
